For this assay, the target named is T1, Leukotriene, Cysteinyl CysLT1 (Cavia porcellus, UniProt Q2NNR5).
T1 construct: from tissue; host or cells: guinea pig lung membrane
T1 sequence (Q2NNR5 1-340): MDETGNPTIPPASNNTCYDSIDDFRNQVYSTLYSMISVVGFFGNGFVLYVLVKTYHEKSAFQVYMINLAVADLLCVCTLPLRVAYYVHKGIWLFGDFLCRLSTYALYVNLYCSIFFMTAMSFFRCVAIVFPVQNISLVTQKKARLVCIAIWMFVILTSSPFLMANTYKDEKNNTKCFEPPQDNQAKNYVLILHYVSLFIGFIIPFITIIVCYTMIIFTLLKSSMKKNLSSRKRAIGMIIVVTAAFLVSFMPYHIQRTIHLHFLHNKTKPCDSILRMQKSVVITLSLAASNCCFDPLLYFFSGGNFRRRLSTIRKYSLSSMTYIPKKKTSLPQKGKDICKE
The assay can be described thus: receptor radio-ligand-binding assay (Tritiated LTD4 as the ligand), Guinea pig lung membrane. Conditions: 0.5 h, 0.2 nM 3H LTD4, Guinea pig lung membrane; for inhibition at 0.001 µM: 1 nM test compound, read-out: % Inhbition (in nM) 1; for inhibition at 0.003 µM: 3 nM test compound, read-out: % Inhbition (in nM) 3; for inhibition at 0.01 µM: 10 nM test compound, read-out: % Inhbition (in nM) 10. As to the method:
The primary in-vitro biological screening for the compounds carried-out involving receptor radio-ligand-binding assay (Tritiated LTD4 as the ligand) by known methods described in literature [a). Mong et al. European Journal of Pharmacology (102); 1984 1-11b). Jones et al; Journal of Physiology & Pharmacology (73); 1994, 191-201 c). MDS Pharma Services: 250460 Leukotriene, Cysteinyl CysLT1]. Accordingly, Guinea pig lung membrane (100 ug) is incubated with 0.2 nM 3H LTD4 in presence of Reference Standard/Test item/Vehicle Control. Non Specific Binding is determined by incubating the membrane with 0.2 nM 3H LTD4 in presence of 1 uM of unlabeled LTD4. The samples are incubated at 26° C. for 30 minutes and are vacuum filtered on a membrane to separate the bound and free radioligand. The membrane is counted in a liquid scintillation counter to calculate the bound radioactivity. Specific Binding in Vehicle treated and Reference Standard/Test item treated set is compared to evaluate the % Inhibition values. Some of the compounds have shown >50% inhibition in the presence of ≦3 nano-molar concentration of the compounds of present invention as shown in the following table.

Take `O=C(c1ccccc1CCC1(c2cccc(/C=C/c3ccc4ccc(Cl)cc4n3)c2)OCCO1)N1CCCC1` [Ib.36, {2-[2-(2-{3-[(E)-2-(7-Chloro-quinolin-2-yl)-vinyl]-phenyl}-[1,3]-dioxolan-2-yl)-ethyl]-phenyl}-pyrrolidin-1-yl-methanone]: the inhibition at 0.001 µM amounted to 49%, the inhibition at 0.003 µM was 91% and the inhibition at 0.01 µM is 99%.

In the case of `O=C(O)c1ccccc1SCC1(c2cccc(/C=C/c3ccc4ccc(Cl)cc4n3)c2)OCCO1` [Ib.42], the inhibition at 0.001 µM came out at 31%, the inhibition at 0.003 µM came to 41% and the inhibition at 0.01 µM turned out to be 49%.

Turning to `O=C(O)c1ccccc1CCC1(c2cccc(/C=C/c3ccc4ccc(Cl)cc4n3)c2)OCCS1` (stereo not drawn) [Ib.59], the inhibition at 0.001 µM was determined as 64%, the inhibition at 0.003 µM is 74% and the inhibition at 0.01 µM was determined as 97%.

Regarding `COc1ccc(CCC2(c3cccc(/C=C/c4ccc5ccc(Cl)cc5n4)c3)OCCO2)c(C(=O)O)c1` [Ib.67], the inhibition at 0.001 µM is 72%, the inhibition at 0.003 µM stood at 86% and the inhibition at 0.01 µM amounted to 89%.

Take `COc1ccc(C=CC2(c3cccc(/C=C/c4ccc5ccc(Cl)cc5n4)c3)OCCO2)c(C(=O)O)c1` [Ib.79]: the inhibition at 0.001 µM is 67%, the inhibition at 0.003 µM was 78% and the inhibition at 0.01 µM stood at 86%.

As to `CCOc1ccc(CCC2(c3cccc(/C=C/c4ccc5ccc(Cl)cc5n4)c3)OCCO2)c(C(=O)O)c1` [Ib.86], the inhibition at 0.001 µM turned out to be 6%, the inhibition at 0.003 µM was found to be 38% and the inhibition at 0.01 µM turned out to be 53%.

Take `C#CCOc1ccc(CCC2(c3cccc(/C=C/c4ccc5ccc(Cl)cc5n4)c3)OCCO2)c(C(=O)O)c1` [Ib.93]: the inhibition at 0.001 µM stood at 14%, the inhibition at 0.003 µM stood at 20% and the inhibition at 0.01 µM is 60%.

For the compound `O=C(O)c1cc(Cl)ccc1CCC1(c2cccc(/C=C/c3ccc4ccc(Cl)cc4n3)c2)OCCO1` [Ib.111], the inhibition at 0.001 µM worked out at 65%, the inhibition at 0.003 µM turned out to be 84% and the inhibition at 0.01 µM was 91%.

In the case of `COc1cc(C(=O)O)c(CCC2(c3cccc(/C=C/c4ccc5ccc(Cl)cc5n4)c3)OCCO2)c(OC)c1OC` [Ib.113], the inhibition at 0.001 µM was 48%, the inhibition at 0.003 µM turned out to be 68% and the inhibition at 0.01 µM amounted to 85%.

In the case of `COc1cc(C(=O)O)c(CCC2(c3cccc(/C=C/c4ccc5ccc(Cl)cc5n4)c3)OCCCO2)cc1[N+](=O)[O-]` [Ib.123], the inhibition at 0.001 µM came to 58%, the inhibition at 0.003 µM was found to be 81% and the inhibition at 0.01 µM is 86%.

As to `O=C(O)c1cc2c(cc1CCC1(c3cccc(/C=C/c4ccc5ccc(Cl)cc5n4)c3)OCCCO1)OCO2` [Ib.133], the inhibition at 0.001 µM is 41%, the inhibition at 0.003 µM was determined as 57% and the inhibition at 0.01 µM was 80%.

`COc1ccc(CCC2(c3cccc(/C=C/c4ccc5ccc(Cl)cc5n4)c3)OCCO2)c(-c2nnn[nH]2)c1` [Ib.135]: the inhibition at 0.001 µM was found to be 56%, the inhibition at 0.003 µM was found to be 77% and the inhibition at 0.01 µM is 86%.

Consider `O=C(O)c1cc2c(cc1CCC1(c3cccc(/C=C/c4ccc5ccc(Cl)cc5n4)c3)OCCO1)OCCO2` [Ib.139], for which the inhibition at 0.001 µM worked out at 28%, the inhibition at 0.003 µM was determined as 52% and the inhibition at 0.01 µM is 82%.

On to `O=C(O)c1ccc(C(=O)O)c(CCC2(c3cccc(/C=C/c4ccc5ccc(Cl)cc5n4)c3)OCCO2)c1` [Ib.142], for which the inhibition at 0.001 µM came to 15%, the inhibition at 0.003 µM came to 49% and the inhibition at 0.01 µM came out at 80%.

With `CC(ON=C(CCc1ccccc1C(C)(C)O)c1cccc(/C=C/c2ccc3ccc(Cl)cc3n2)c1)C(=O)O` (stereo not drawn) [Ib.148], the inhibition at 0.001 µM is 20%, the inhibition at 0.003 µM was determined as 16% and the inhibition at 0.01 µM came out at 31%.

These data come from US9102665B2, “Cysteinyl leukotriene antagonists” (Sun Pharma Advanced Research Company Ltd., priority 2011, dated 2015).
